From patent US6534516B1, “Androgen receptor modulator compounds and methods” (Ligand Pharmaceuticals Incorporated, priority 1996, dated 2003)

Key:
[1] = target: T1, human AR (Homo sapiens, UniProt P10275); assay: cell-based; assay type: cell-based
T1 construct: expressed in transfected cells; host or cells: CV-1 cells (African green monkey kidney fibroblasts)
T1 sequence (P10275 1-920): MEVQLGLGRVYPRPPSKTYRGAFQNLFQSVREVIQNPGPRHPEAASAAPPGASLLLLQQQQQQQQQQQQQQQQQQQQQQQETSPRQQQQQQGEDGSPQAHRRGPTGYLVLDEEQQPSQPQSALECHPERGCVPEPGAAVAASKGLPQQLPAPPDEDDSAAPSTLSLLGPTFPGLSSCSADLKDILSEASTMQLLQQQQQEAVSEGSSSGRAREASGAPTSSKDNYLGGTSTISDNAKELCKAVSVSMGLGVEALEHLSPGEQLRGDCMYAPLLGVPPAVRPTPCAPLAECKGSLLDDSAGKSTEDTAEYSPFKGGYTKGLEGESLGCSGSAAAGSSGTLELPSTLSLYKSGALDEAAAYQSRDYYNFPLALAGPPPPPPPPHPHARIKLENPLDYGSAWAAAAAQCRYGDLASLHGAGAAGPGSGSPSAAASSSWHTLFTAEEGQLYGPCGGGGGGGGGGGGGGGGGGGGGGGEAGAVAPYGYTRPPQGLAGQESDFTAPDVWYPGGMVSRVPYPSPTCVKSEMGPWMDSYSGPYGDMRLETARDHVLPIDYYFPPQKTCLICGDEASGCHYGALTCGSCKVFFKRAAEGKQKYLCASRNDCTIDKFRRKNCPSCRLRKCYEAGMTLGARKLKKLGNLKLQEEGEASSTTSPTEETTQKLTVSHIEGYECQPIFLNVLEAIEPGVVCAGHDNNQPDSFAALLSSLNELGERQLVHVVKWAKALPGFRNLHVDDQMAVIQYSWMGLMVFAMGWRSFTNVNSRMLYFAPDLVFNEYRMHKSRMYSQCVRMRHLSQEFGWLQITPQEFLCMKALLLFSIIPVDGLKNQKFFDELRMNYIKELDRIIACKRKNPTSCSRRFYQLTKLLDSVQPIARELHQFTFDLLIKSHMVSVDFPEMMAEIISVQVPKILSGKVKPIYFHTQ
From the text: The co-transfection assay provides a method for identifying functional agonists and partial agonists which mimic, or antagonists which inhibit, the effect of native hormones, and quantifying their activity for responsive IR proteins. In this regard, the co-transfection assay mimics an in vivo system in the laboratory. Importantly, activity in the co-transfection assay correlates very well with known in vivo activity, such that the co-transfection assay functions as a qualitative and quantitative predictor of a tested compounds in vivo pharmacology. See, e.g., T. Berger et al. 41 J. Steroid Biochem. Molec.
CV-1 cells (African green monkey kidney fibroblasts) were cultured in the presence of Dulbecco's Modified Eagle Medium (DMEM) supplemented with 10% charcoal resin-stripped fetal bovine serum then transferred to 96-well microtiter plates one day prior to transfection.
The reporter plasmid, MTV-LUC, contains the cDNA for firefly luciferase (LUC) under control of the mouse mammary tumor virus (MTV) long terminal repeat, a conditional promoter containing an androgen response element. See e.g., Berger et al. supra. In addition, pRS-β-Gal, coding for constitutive expression of E. coli β-galactosidase (β-Gal), was included as an internal control for evaluation of transfection efficiency and compound toxicity.
Three to four replicates were used for each sample.
After 40 hours, the cells were washed with PBS, lysed with a Triton X-100-based buffer and assayed for LUC and β-Gal activities using a luminometer or spectrophotometer, respectively. For each replicate, the normalized response (NR) was calculated as:
where β-Gal rate=β-Gal•1×10^−5/β-Gal incubation time.

[2] = target: T2, MR (Homo sapiens, UniProt P08235); assay: Co-transfection assay, cross-reactivity on MR; assay type: cell-based
T2 construct: expressed in transfected cells
T2 sequence (P08235 1-984): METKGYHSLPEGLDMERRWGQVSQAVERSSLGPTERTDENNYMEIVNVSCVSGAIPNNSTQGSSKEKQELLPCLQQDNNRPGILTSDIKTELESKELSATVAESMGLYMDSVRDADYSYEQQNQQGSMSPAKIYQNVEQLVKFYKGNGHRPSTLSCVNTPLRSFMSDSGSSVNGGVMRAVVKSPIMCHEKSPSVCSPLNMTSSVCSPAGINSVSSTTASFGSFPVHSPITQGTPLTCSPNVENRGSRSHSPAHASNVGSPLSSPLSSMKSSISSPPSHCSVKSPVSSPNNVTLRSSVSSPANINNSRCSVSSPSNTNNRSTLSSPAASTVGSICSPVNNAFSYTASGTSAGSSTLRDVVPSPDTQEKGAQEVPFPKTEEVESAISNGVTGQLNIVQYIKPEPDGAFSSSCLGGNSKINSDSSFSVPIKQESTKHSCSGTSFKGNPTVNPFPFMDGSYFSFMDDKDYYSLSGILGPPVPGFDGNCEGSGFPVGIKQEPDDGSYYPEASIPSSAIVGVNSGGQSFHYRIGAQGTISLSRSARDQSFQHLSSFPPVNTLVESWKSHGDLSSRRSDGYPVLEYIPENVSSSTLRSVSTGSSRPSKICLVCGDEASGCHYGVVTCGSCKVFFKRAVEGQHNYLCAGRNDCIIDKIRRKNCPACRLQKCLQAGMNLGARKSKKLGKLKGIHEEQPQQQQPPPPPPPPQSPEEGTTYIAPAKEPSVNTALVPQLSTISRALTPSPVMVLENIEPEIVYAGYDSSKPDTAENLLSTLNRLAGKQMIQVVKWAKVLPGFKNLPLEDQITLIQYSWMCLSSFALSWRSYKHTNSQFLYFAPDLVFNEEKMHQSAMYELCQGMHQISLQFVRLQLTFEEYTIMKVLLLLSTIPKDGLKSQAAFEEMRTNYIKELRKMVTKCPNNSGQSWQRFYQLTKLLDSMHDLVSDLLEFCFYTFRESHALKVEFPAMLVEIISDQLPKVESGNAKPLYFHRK

## CC1(C)CCc2cc3c(C(F)(F)F)c(F)c(=O)[nH]c3cc2N1 [Compound 105, 7-Fluoro-1,2,3,4-tetrahydro-2,2-dimethyl-6-trifluoromethyl-8-pyridono[5,6-g]quinoline]
[1]
  AR Agonist CV-1 Cells Efficacy: 39 ± 6%
  EC50: 125 ± 28 nM
[1]; antagonist mode, DHT at its EC50, % of maximal inhibition, na = not active
  AR Antagonist CV-1 Cells Efficacy: 39 ± 6%
[1]; read-out: AR Antagonist CV-1 Cells Potency
  IC50: 34 ± 14 nM
[1]; summary of Tables 1 and 2
  AR activity profile (in words): mixed AR agonists/antagonists
[2]
  IC50: 2260 nM
